Legend:
[1] = Serum concentration and clearance of PCB3 metabolites after inhalation; assay type: in vivo, female Sprague–Dawley (SD) rats; conditions: 0 h postexposure; PCB3 26 μg/rat; mean ± SD, n = 3
[2] = Excretion in urine and feces over 24 h after inhalation of PCB3; assay type: in vivo, female Sprague–Dawley (SD) rats; conditions: 0–24 h; PCB3 35 μg/rat; n = 3
[3] = test system: granulosa and theca cells derived from porcine ovary; conditions: cited from earlier work
[4] = Serum chemistry and serum free thyroxine; assay type: in vivo, female Sprague–Dawley (SD) rats; conditions: rats exposed to PCB3 for 2 h
urinary 8-oxo-dG = experiment: Urinary 8-oxo-dG analysis; assay type: in vivo, female Sprague–Dawley (SD) rats; conditions: exposed rats; composite 24 h urine; not significant vs control (p = 0.23)

Row | Structure (SMILES) | Serum concentration [1] | Metabolite excreted in urine, percentage of dose [2] | Estradiol level in the medium [3] | Unchanged PCB3 in feces, percentage of dose [2] | Unchanged PCB3 in urine, percentage of dose [2] | Serum chemistry parameters (renal function, serum protein, T4, electrolyte balance, pancreas function, liver function, lipid metabolism) [4] | 8-oxo-dG level in 24 h urine (urinary 8-oxo-dG)
1 | Oc1ccc(-c2ccc(Cl)cc2)cc1 [4′OH-PCB3] | 7 ± 1 ng/mL | 1.0 ± 0.5% |  |  |  |  | 
2 | Clc1ccc(-c2ccccc2)cc1 [PCB3, 4-chlorobiphenyl] |  |  | significant increase | 4 ± 2% | 2 ± 1% | within normal ranges | 160 ± 35 pg/mg creatinine

Source: article PMC4137987 (Chemical Research in Toxicology, 2014)
